ChEMBL document CHEMBL1201862, “PubChem BioAssay data set” (2004)
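Each compound was tested at five concentrations against cells in 96-well plates for 48 hours. GI50 is the concentration that inhibits growth by half.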 The source made the active and inactive calls. Cut-off read from the data, not from the text of the source: active = GI50 up to about 1.1 µM and inactive = higher.

How the values were obtained:
Experiment in all cases: NCI tumour cell line growth inhibition, 48 h
HOP-18 = test system: HOP-18
SNB-78 = test system: SNB-78
LXFL 529 = test system: LXFL 529
M19-MEL = test system: M19-MEL
DMS-273 = test system: DMS-273
DLD-1 = test system: DLD-1
KM-20L2 = test system: KM-20L2
RXF 631 = test system: RXF 631
XF498 = test system: XF498

Measured: GI50

CC1=Nc2c(ccc3c2C(=O)c2ccccc2C3=O)NC(c2ccncc2)C1 (configuration not stated)
inactive: HOP-18 > 10 µM | SNB-78 > 10 µM | LXFL 529 > 10 µM | M19-MEL > 10 µM | DMS-273 > 10 µM | DLD-1 29.4 µM | KM-20L2 > 10 µM | RXF 631 36.6 µM | XF498 > 100 µM

OCC(O)COc1c(Cl)cc(Cl)cc1Cl (configuration not stated)
inactive: HOP-18 > 100 µM | SNB-78 > 100 µM | LXFL 529 > 90.8 µM | M19-MEL > 100 µM | DMS-273 > 100 µM | DLD-1 > 59.7 µM | KM-20L2 > 100 µM | RXF 631 > 100 µM | XF498 > 100 µM

CC1(C)COC(c2ccc(C(F)(F)F)cc2C(O)c2ccc3ccccc3c2)=N1 (configuration not stated)
inactive: HOP-18 > 10 µM | SNB-78 89.3 µM | LXFL 529 > 10 µM | M19-MEL > 10 µM | DMS-273 > 10 µM | DLD-1 > 10 µM | KM-20L2 > 10 µM | RXF 631 > 100 µM | XF498 64.3 µM
